How the values were obtained:
[1] = 1000 mg/kg intragastric once a day; from the third day of administration
Experimental: Two Weeks of Toxicity Studies on Rats (Compared with Clopidogrel)
100 mg/ml suspension is prepared before use, and administrated intragastricly at 1 ml/100 g every morning.
Experimental animals: SD rats weighing about 180 g, 7 female and 7 male in each group.
The same amount of solvent is administrated intragastricly to the blank control group, and equal-dose (1000 mg/kg) of Clopidogrel is administrated intragastricly to the positive control group.

[2] = system: ADP-induced platelet aggregation; assay: Inhibiting effect on rat platelet aggregation (ADP-induced, PRP taken 2 h after intragastric administration); type: in vivo, Wistar rats; settings: blood 2 h after administration, ADP final concentration 1.08 μM, X ± SD
Experimental: Experiments of Inhibiting Effect on Rat Platelet Aggregation:
ADP: produced by SIGMA Co.
Wistar rats: SPF grade, male, provided by The Institute of Laboratory Animal Science, Chinese Academy of Medical Sciences, license No. SCXK (jing) 2005-0013.
PAM-3 Dual Channel Platelet Aggregometer: produced by Jiangsu Danyang Radio Factory.
Healthy male Wistar rats weighing 200-250 g were selected and randomly divided into groups. The experiments were carried out in three batches, and each batch was distributed into a normal control group and 6 compound groups, and totally two dose groups were tested in each batch. […] Intragastric administration with a dose volume of 10 ml/kg·bw was used. The normal control group was given the same amount of 0.5% CMC-Na. 2 h after administration, 40 mg/kg of pentobarbital sodium was intraperitoneally injected (1 ml/kg) for anesthesia, and blood was collected from the abdominal aorta. 3.8% sodium citrate was used for anticoagulation, and platelet-rich plasma (PRP) and platelet-poor plasma (PPP) were prepared respectively. Maximum percentage of ADP (final concentration: 1.08 μM) induced platelet aggregation was tested on a PAM-3 Dual Channel Platelet Aggregometer.

[3] = rat, in vivo
[4] = 15 mg/kg intragastric, n=10, control group 74.2 ± 20.8
[5] = 30 mg/kg intragastric, n=6, control group 47.1 ± 14.2

Row | SMILES | hemorrhagic secretions around the rats' nasal [1] | Maximum percentage of aggregation [2, 4] | Maximum percentage of aggregation [2, 5] | conversion rate into active metabolites thiols, higher than Clopidogrel [3] | time to peak concentration of active metabolites [3]
1 | COC(=O)[C@H](c1ccccc1Cl)N1CCc2sccc2C1 [Clopidogrel, reference compound] | hemorrhagic secretions around the rats' nasal can be observed |  |  |  | 
2 | CC(=O)Oc1cc2c(s1)CCN(Cc1ccccc1C#N)C2 [Compound I-1, (5-(2-cyanobenzyl)-4,5,6,7-tetrahydrothieno[3,2-c]pyridin-2-yl)acetate] | obviously slight in the compound I-1 group than in the Clopidogrel group | 20.5 ± 25.5% | 8.4 ± 8.3% | about 5 times | 50 to 60 min
3 | CC(=O)Oc1cc2c(s1)CCN(Cc1cccc(C#N)c1)C2 [Compound I-2, (5-(3-cyanobenzyl)-4,5,6,7-tetrahydrothieno[3,2-c]pyridin-2-yl)acetate] |  | 29.8 ± 24.3% | 4.9 ± 28.4% | about 5 times | 50 to 60 min
4 | CC(=O)Oc1cc2c(s1)CCN(Cc1ccc(C#N)cc1)C2 [Compound I-3] |  | 22.7 ± 24.1% | 8.7 ± 17.8% | about 5 times | 50 to 60 min

— US8809366B2, “Thienopyridine ester derivative containing cyano group, preparation method, use and composition thereof” (Tianjin Institute of Pharmaceutical Research, priority 2011, dated 2014)
